{
  "source": "ChEMBL document CHEMBL5518228",
  "about": "“DNA Interaction and Cleavage Modes of Anthraquinone-Fused Enediynes: A Study on Tiancimycins, Yangpumicins, and Their Semisynthetic Analogues” (J Med Chem, 2024)",
  "key": {"DNA": {"tested_on": "DNA", "assay": "Induction of duplex DNA (unknown origin) cleavage assessed as DNA cleaved fragments at AT-rich region at 1 mM incubated for 6 hr in presence of DTT by agarose gel electrophoresis analysis", "format": "nucleic-acid assay"}, "Supercoiled DNA [1]": {"tested_on": "Supercoiled DNA", "assay": "Induction of supercoiled pBR322 DNA (unknown origin) cleavage at 50 uM incubated for 1 hr in presence of DTT under pH 7.4 condition by agarose gel electrophoresis analysis", "format": "nucleic-acid assay"}, "Supercoiled DNA [2]": {"tested_on": "Supercoiled DNA", "assay": "Induction of supercoiled pBR322 DNA (unknown origin) cleavage at 50 uM incubated for 1 hr in presence of NADPH by agarose gel electrophoresis analysis", "format": "nucleic-acid assay"}, "[3]": {"assay": "Toxicity in BALB/c mouse xenografted with human KPL-4 cells assessed as pathological damage in spleen at 0.2 mg/kg,iv administrated once per week for 2 weeks by H and E staining based analysis", "format": "organism-based", "conditions": "in vivo, 336 h"}, "[4]": {"assay": "Toxicity in BALB/c mouse xenografted with human KPL-4 cells assessed as pathological damage in heart at 0.2 mg/kg,iv administrated once per week for 2 weeks by H and E staining based analysis", "format": "organism-based", "conditions": "in vivo, 336 h"}, "[5]": {"assay": "Cytotoxicity against human HUVEC cells incubated for 72 hrs by CCK-8 assay", "format": "toxicity, cell-based"}, "Supercoiled DNA [6]": {"tested_on": "Supercoiled DNA", "assay": "Induction of supercoiled pBR322 DNA (unknown origin) cleavage assessed as relaxation of supercoiled plasmid incubated for 1 hr in presence of DTT by SYBR I Green staining based agarose gel electrophoresis analysis", "format": "nucleic-acid assay"}, "[7]": {"assay": "Toxicity in BALB/c mouse xenografted with human KPL-4 cells assessed as body weight loss at 0.2 mg/kg,iv administrated once per week for 2 weeks", "format": "organism-based", "conditions": "in vivo, 336 h"}, "[8]": {"assay": "Toxicity in BALB/c mouse xenografted with human KPL-4 cells assessed as pathological damage in heart at 0.05 mg/kg,iv administrated once per week for 2 weeks by H and E staining based analysis", "format": "organism-based", "conditions": "in vivo, 336 h"}, "Supercoiled DNA [9]": {"tested_on": "Supercoiled DNA", "assay": "Induction of supercoiled pBR322 DNA (unknown origin) cleavage at 50 uM incubated for 1 hr in presence of GSH by agarose gel electrophoresis analysis", "format": "nucleic-acid assay"}, "Calf thymus DNA [10]": {"tested_on": "Calf thymus DNA", "assay": "Binding affinity to calf thymus DNA assessed as DNA insertion by measuring change in gibbs free energy in presence of triggered form of compound by fluorescence spectroscopic analysis", "format": "nucleic-acid assay", "conditions": "Bos taurus"}, "Caco-2": {"tested_on": "Caco-2", "assay": "Cytotoxicity against human Caco-2 cells incubated for 72 hrs by CCK-8 assay", "format": "functional, cell-based", "conditions": "Caco-2, 72 h"}, "Supercoiled DNA [11]": {"tested_on": "Supercoiled DNA", "assay": "Induction of supercoiled pBR322 DNA (unknown origin) cleavage at 50 uM incubated for 1 hr under pH 5.5 to 6.5 condition by agarose gel electrophoresis analysis", "format": "nucleic-acid assay"}, "Supercoiled DNA [12]": {"tested_on": "Supercoiled DNA", "assay": "Induction of supercoiled pBR322 DNA (unknown origin) cleavage at 50 uM incubated for 1 hr in presence of actinomycin D by agarose gel electrophoresis analysis", "format": "nucleic-acid assay"}, "[13]": {"assay": "Toxicity in BALB/c mouse xenografted with human KPL-4 cells assessed as pathological damage in kidney at 0.2 mg/kg,iv administrated once per week for 2 weeks by H and E staining based analysis", "format": "organism-based", "conditions": "in vivo, 336 h"}, "[14]": {"assay": "Toxicity in BALB/c mouse xenografted with human KPL-4 cells assessed as pathological damage in liver at 0.2 mg/kg,iv administrated once per week for 2 weeks by H and E staining based analysis", "format": "organism-based", "conditions": "in vivo, 336 h"}, "Supercoiled DNA [15]": {"tested_on": "Supercoiled DNA", "assay": "Induction of supercoiled pBR322 DNA (unknown origin) cleavage at 50 uM incubated for 1 hr in presence of bleomycin and ferrous ion by agarose gel electrophoresis analysis", "format": "nucleic-acid assay"}, "Supercoiled DNA [16]": {"tested_on": "Supercoiled DNA", "assay": "Induction of supercoiled pBR322 DNA (unknown origin) cleavage at 50 uM incubated for 1 hr in presence of pyridine under pH 7.4 condition by agarose gel electrophoresis analysis", "format": "nucleic-acid assay"}, "[17]": {"assay": "Toxicity in BALB/c mouse xenografted with human KPL-4 cells assessed as pathological damage in spleen at 0.05 mg/kg,iv administrated once per week for 2 weeks by H and E staining based analysis", "format": "organism-based", "conditions": "in vivo, 336 h"}, "A549": {"tested_on": "A549", "assay": "Cytotoxicity against human A549 cells incubated for 72 hrs by CCK-8 assay", "format": "functional, cell-based", "conditions": "A549, 72 h"}, "Jurkat": {"tested_on": "Jurkat", "assay": "Cytotoxicity against human Jurkat cells incubated for 72 hrs by CCK-8 assay", "format": "functional, cell-based"}, "Supercoiled DNA [18]": {"tested_on": "Supercoiled DNA", "assay": "Induction of supercoiled pBR322 DNA (unknown origin) cleavage at 50 uM incubated for 1 hr in presence of bleomycin by agarose gel electrophoresis analysis", "format": "nucleic-acid assay"}, "[19]": {"assay": "Cytotoxicity against human NCM460 cells incubated for 72 hrs by CCK-8 assay", "format": "toxicity, cell-based"}, "[20]": {"assay": "Cytotoxicity against human KPL-4 cells incubated for 72 hrs by CCK-8 assay", "format": "functional, cell-based", "conditions": "KPL4, 72 h"}, "[21]": {"assay": "Toxicity in BALB/c mouse xenografted with human KPL-4 cells assessed as pathological damage in liver at 0.05 mg/kg,iv administrated once per week for 2 weeks by H and E staining based analysis", "format": "organism-based", "conditions": "in vivo, 336 h"}, "[22]": {"assay": "Toxicity in BALB/c mouse xenografted with human KPL-4 cells assessed as pathological damage in lung at 0.05 mg/kg,iv administrated once per week for 2 weeks by H and E staining based analysis", "format": "organism-based", "conditions": "in vivo, 336 h"}, "Calf thymus DNA [23]": {"tested_on": "Calf thymus DNA", "assay": "Binding affinity to calf thymus DNA assessed as change in gibbs free energy in presence of ethidium bromide by competitive binding based fluorescence spectroscopic analysis", "format": "nucleic-acid assay", "conditions": "Bos taurus"}, "Supercoiled DNA [24]": {"tested_on": "Supercoiled DNA", "assay": "Induction of supercoiled pBR322 DNA (unknown origin) cleavage at 50 uM incubated for 1 hr in presence of adriamycin by agarose gel electrophoresis analysis", "format": "nucleic-acid assay"}, "KPL-4 [25]": {"tested_on": "KPL-4", "assay": "Antitumor activity against human KPL-4 cells xenografted with BALB/c mouse assessed as reduction in tumor mass at 0.05 mg/kg,iv administrated once per week for 2 weeks", "format": "functional, organism-based"}, "Supercoiled DNA [26]": {"tested_on": "Supercoiled DNA", "assay": "Induction of supercoiled pBR322 DNA (unknown origin) cleavage at 50 uM incubated for 1 hr in presence of catalase under pH 7.4 condition by agarose gel electrophoresis analysis", "format": "nucleic-acid assay"}, "Supercoiled DNA [27]": {"tested_on": "Supercoiled DNA", "assay": "Induction of supercoiled pBR322 DNA (unknown origin) cleavage at 50 uM incubated for 1 hr in presence of DTT by agarose gel electrophoresis analysis", "format": "nucleic-acid assay"}, "Calf thymus DNA [28]": {"tested_on": "Calf thymus DNA", "assay": "Binding affinity to calf thymus DNA assessed as DNA insertion by measuring change in gibbs free energy by fluorescence spectroscopic analysis", "format": "nucleic-acid assay", "conditions": "Bos taurus"}, "[29]": {"assay": "Toxicity in BALB/c mouse xenografted with human KPL-4 cells assessed as pathological damage in kidney at 0.05 mg/kg,iv administrated once per week for 2 weeks by H and E staining based analysis", "format": "organism-based", "conditions": "in vivo, 336 h"}, "KPL-4 [30]": {"tested_on": "KPL-4", "assay": "Antitumor activity against human KPL-4 cells xenografted with BALB/c mouse assessed as reduction in tumor mass at 0.2 mg/kg,iv administrated once per week for 2 weeks", "format": "functional, organism-based"}, "[31]": {"assay": "Toxicity in BALB/c mouse xenografted with human KPL-4 cells assessed as pathological damage in lung at 0.2 mg/kg,iv administrated once per week for 2 weeks by H and E staining based analysis", "format": "organism-based", "conditions": "in vivo, 336 h"}, "Supercoiled DNA [32]": {"tested_on": "Supercoiled DNA", "assay": "Induction of supercoiled pBR322 DNA (unknown origin) cleavage at 50 uM incubated for 1 hr under pH 5.5 to 9.5 condition by agarose gel electrophoresis analysis", "format": "nucleic-acid assay"}},
  "note": "Calls of active or inactive are those of the source. The rule behind the calls is not given here.",
  "data": [
    {"smiles": "COc1ccc2c(c1OC)C(=O)c1c3c(cc(O)c1C2=O)[C@@]12O[C@@]1([C@@H](C)O)[C@H](C#C/C=C\\C#C[C@H]2O)N3", "values": [
      {"measurement": "Activity", "setting": "DNA", "result": "inactive"},
      {"measurement": "Activity", "setting": "Supercoiled DNA [1]", "result": "inactive"},
      {"measurement": "Activity", "setting": "Supercoiled DNA [2]", "result": "inactive"},
      {"measurement": "Activity", "setting": "[3]", "result": "Non-Toxic"},
      {"measurement": "Activity", "setting": "[4]", "result": "Non-Toxic"},
      {"measurement": "IC50 at 72 h", "setting": "[5]", "result": 6.8, "unit": "nM"},
      {"measurement": "EC50", "setting": "Supercoiled DNA [6]", "result": 17.3, "unit": "nM"},
      {"measurement": "Activity", "setting": "[7]", "result": "Non-Toxic"},
      {"measurement": "Activity", "setting": "[8]", "result": "Non-Toxic"},
      {"measurement": "Activity", "setting": "Supercoiled DNA [9]", "result": "inactive"},
      {"measurement": "deltaG", "setting": "Calf thymus DNA [10]", "result": -18.1, "unit": "kcal/mol"},
      {"measurement": "IC50", "setting": "Caco-2", "result": 37.9, "unit": "nM"},
      {"measurement": "Activity", "setting": "Supercoiled DNA [11]", "result": "inactive"},
      {"measurement": "Activity", "setting": "Supercoiled DNA [12]", "result": "inactive"},
      {"measurement": "Activity", "setting": "[13]", "result": "Non-Toxic"},
      {"measurement": "Activity", "setting": "[14]", "result": "Non-Toxic"},
      {"measurement": "Activity", "setting": "Supercoiled DNA [15]", "result": "Active"},
      {"measurement": "Activity", "setting": "Supercoiled DNA [16]", "result": "inactive"},
      {"measurement": "Activity", "setting": "[17]", "result": "Non-Toxic"},
      {"measurement": "IC50", "setting": "A549", "result": 1.3, "unit": "nM"},
      {"measurement": "IC50", "setting": "Jurkat", "result": 0.1, "unit": "nM"},
      {"measurement": "Activity", "setting": "Supercoiled DNA [18]", "result": "Active"},
      {"measurement": "IC50 at 72 h", "setting": "[19]", "result": 6, "unit": "nM"},
      {"measurement": "IC50", "setting": "[20]", "result": 0.1, "unit": "nM"},
      {"measurement": "Activity", "setting": "[21]", "result": "Non-Toxic"},
      {"measurement": "Activity", "setting": "[22]", "result": "Non-Toxic"},
      {"measurement": "deltaG", "setting": "Calf thymus DNA [23]", "result": -7.98, "unit": "kcal/mol"},
      {"measurement": "Activity", "setting": "Supercoiled DNA [24]", "result": "inactive"},
      {"measurement": "Activity", "setting": "KPL-4 [25]", "result": "Active"},
      {"measurement": "Activity", "setting": "Supercoiled DNA [26]", "result": "inactive"},
      {"measurement": "Activity", "setting": "Supercoiled DNA [27]", "result": "Active"},
      {"measurement": "deltaG", "setting": "Calf thymus DNA [28]", "result": -23.8, "unit": "kcal/mol"},
      {"measurement": "Activity", "setting": "[29]", "result": "Non-Toxic"},
      {"measurement": "Activity", "setting": "KPL-4 [30]", "result": "Active"},
      {"measurement": "Activity", "setting": "[31]", "result": "Non-Toxic"},
      {"measurement": "Activity", "setting": "Supercoiled DNA [32]", "result": "Active"}
    ]}
  ]
}
